From US9556201B2, “Bicyclic pyridines and analogs as sirtuin modulators” (GLAXOSMITHKLINE LLC, priority 2009, dated 2017) come the findings set out here.

In one experiment the target is T1, SIRT1 (Homo sapiens, UniProt Q96EB6).
T1 sequence (Q96EB6 1-747): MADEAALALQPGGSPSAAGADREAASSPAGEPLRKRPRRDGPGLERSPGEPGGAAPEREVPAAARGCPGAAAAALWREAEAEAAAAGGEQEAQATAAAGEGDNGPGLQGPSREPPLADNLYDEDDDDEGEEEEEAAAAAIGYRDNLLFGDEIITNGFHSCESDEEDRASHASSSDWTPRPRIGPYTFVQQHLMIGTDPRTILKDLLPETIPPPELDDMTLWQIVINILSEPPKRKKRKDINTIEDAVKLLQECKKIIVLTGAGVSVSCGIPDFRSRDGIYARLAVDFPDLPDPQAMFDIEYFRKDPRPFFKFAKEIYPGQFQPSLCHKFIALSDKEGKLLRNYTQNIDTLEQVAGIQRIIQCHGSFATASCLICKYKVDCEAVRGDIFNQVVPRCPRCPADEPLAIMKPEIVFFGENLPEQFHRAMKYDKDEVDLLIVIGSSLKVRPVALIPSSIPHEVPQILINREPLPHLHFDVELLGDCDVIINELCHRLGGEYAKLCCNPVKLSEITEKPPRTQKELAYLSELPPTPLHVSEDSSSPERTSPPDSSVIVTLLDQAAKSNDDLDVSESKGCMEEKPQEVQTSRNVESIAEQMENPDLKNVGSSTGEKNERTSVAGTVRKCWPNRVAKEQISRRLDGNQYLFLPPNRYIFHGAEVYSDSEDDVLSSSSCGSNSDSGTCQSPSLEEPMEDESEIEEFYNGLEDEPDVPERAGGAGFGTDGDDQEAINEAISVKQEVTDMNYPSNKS
Kind of experiment: Mass spectrometry based assay to identify modulators of SIRT1 activity (deacetylation of p53-based acetylated peptide substrate). In kind it is biochemical. The settings on record: SIRT1 activation; for Emax: 25 min, read-out: % FOLD ACT. (percent maximum fold activation). The gist of the method: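 His-tagged human SIRT1 (10 nM, E. coli) incubated 25 min at 25 °C with […] p53-derived acetylated 5TMR peptide and 120 μM βNAD+ in pH 8 Tris-acetate buffer, then formic acid-stopped. Mass spectrometry quantifies acetylated vs deacetylated peptide; nicotinamide and DMSO controls.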

A further experiment concerns TNF. Kind of experiment: TNF IC50 (column of Table 1; method not shown). In kind it is cell-based.

Where only a bound is given, the exact number is not on record here.

As usually defined, the IC50 is the midpoint of a concentration-inhibition curve. `CN1CCN(C(=O)Nc2ccncc2)c2nc(-c3cccc(C(F)(F)F)c3)ccc21` [Compound 531]: at SIRT1, the Emax was more than 200% and the EC1.5 result is recorded as “A (EC1.5<1.0 μM)”. Also, the 50% inhibitory concentration (IC50) with TNF was less than 20 µM.

On to `Cc1csc(NC(=O)N2CCCc3ccc(-c4cccc(F)c4)nc32)n1` [Compound 620], for which, at SIRT1, the Emax is more than 200% and the EC1.5 entry is on record as “A (EC1.5<1.0 μM)”. This compound also registered an IC50 with TNF of less than 20 µM.

For `O=C(Nc1ccnc(N2CCC2)c1)N1CCCOc2ccc(-c3cccc(Cl)c3)nc21` [Compound 608], on SIRT1, the Emax was more than 200% and the EC1.5 entry is “A (EC1.5<1.0 μM)”. The compound also yielded an IC50 in the experiment on TNF of less than 20 µM.

As for `Cc1cc(NC(=O)N2CCOc3ccc(-c4cccc(N(C)C)c4)nc32)cc(C)n1` [Compound 619], on SIRT1, the Emax is more than 200% and the EC1.5 result is given as “A (EC1.5<1.0 μM)”. The compound further came in with an IC50 with TNF of less than 20 µM.

Regarding `Cc1cc(NC(=O)N2CCCc3ccc(-c4cccc(C(F)(F)F)c4)nc32)cc(C)n1` [Compound 587], on SIRT1, the Emax is more than 200% and the EC1.5 result is recorded as “A (EC1.5<1.0 μM)”. The compound further displayed an IC50 in the experiment on TNF of less than 20 µM.

`Cc1cncc(NC(=O)N2CCOc3c(C)cc(-c4cccc(C(F)(F)F)c4)nc32)c1` [Compound 670]: on SIRT1, the Emax is more than 200% and the EC1.5 entry is listed as “A (EC1.5<1.0 μM)”. Further, the IC50 in the experiment with TNF is not below 20 µM.

Take `Cc1csc(NC(=O)N2CCCc3ccc(-c4cccc(C(F)(F)F)c4)nc32)n1` [Compound 588]: on SIRT1, the Emax was more than 200% and the EC1.5 result is given as “A (EC1.5<1.0 μM)”. The same compound came in with an IC50 with TNF not below 20 µM.

For the compound `O=C(Nc1ccnc(N2CCC2)c1)N1CCOc2ccc(-c3cccc(C(F)(F)F)c3)nc21` [Compound 513], at SIRT1, the Emax was more than 200% and the EC1.5 result is given as “A (EC1.5<1.0 μM)”. In the experiment with TNF, this compound displayed an IC50 not below 20 µM.

For `Cc1cc(C)nc(NC(=O)N2CCOc3c(C)cc(-c4cccc(C(F)(F)F)c4)nc32)c1` [Compound 672], at SIRT1, the Emax is not above 200% and the EC1.5 entry is given as “A (EC1.5<1.0 μM)”. This compound also yielded an IC50 with TNF not below 20 µM.

As for `Cc1cncc(NC(=O)N2CCCc3ccc(-c4cccc(Cl)c4)nc32)c1` [Compound 599], at SIRT1, the Emax was more than 200% and the EC1.5 entry is recorded as “A (EC1.5<1.0 μM)”. The IC50 in the experiment with TNF is not below 20 µM.

Turning to `Cc1cc(NC(=O)N2CCCOc3ccc(-c4cccc(Cl)c4)nc32)ccn1` [Compound 613], on SIRT1, the Emax was more than 200% and the EC1.5 entry was “A (EC1.5<1.0 μM)”. Moreover, the IC50 in the experiment with TNF is less than 20 µM.

On to `CN1CCN(C(=O)Nc2ccncn2)c2nc(-c3cccc(C(F)(F)F)c3)ccc21` [Compound 535], for which, at SIRT1, the Emax is more than 200% and the EC1.5 entry is “A (EC1.5<1.0 μM)”. Moreover, the half-maximal inhibitory concentration (IC50) in the experiment on TNF is not below 20 µM.

As for `Cc1csc(NC(=O)N2CCOc3c(C)cc(-c4cccc(Cl)c4)nc32)n1` [Compound 684], at SIRT1, the Emax is more than 200% and the EC1.5 result is “A (EC1.5<1.0 μM)”. This compound also showed an IC50 with TNF not below 20 µM.

In the case of `O=C(Nc1ccccn1)N1CCCc2ccc(-c3cccc(C(F)(F)F)c3)nc21` [Compound 646], on SIRT1, the Emax is more than 200% and the EC1.5 entry is “A (EC1.5<1.0 μM)”. The IC50 with TNF is less than 20 µM.

In the case of `Cc1csc(NC(=O)N2CCOc3c(C)cc(-c4cccc(C(F)(F)F)c4)nc32)n1` [Compound 668, 8-methyl-N-(4-methylthiazol-2-yl)-6-(3-(trifluoromethyl)phenyl)-2H-pyrido[3,2-b][1,4]oxazine-4(3H)-carboxamide], at SIRT1, the Emax is more than 200% and the EC1.5 result is listed as “A (EC1.5<1.0 μM)”. The compound further displayed an IC50 in the experiment on TNF not below 20 µM.

Regarding `O=C(Nc1cncc(F)c1)N1CCCc2ccc(-c3cccc(C(F)(F)F)c3)nc21` [Compound 586], at SIRT1, the Emax was more than 200% and the EC1.5 entry is reported as “A (EC1.5<1.0 μM)”. In the experiment with TNF, the IC50 is less than 20 µM.

On to `Cc1cncc(NC(=O)N2CCCc3ccc(-c4cccc(C(F)(F)F)c4)nc32)c1` [Compound 585, N-(5-methylpyridin-3-yl)-7-(3-(trifluoromethyl)phenyl)-3,4-dihydro-1,8-naphthyridine-1(2H)-carboxamide], for which, on SIRT1, the Emax was more than 200% and the EC1.5 result is on record as “A (EC1.5<1.0 μM)”. Moreover, in the experiment with TNF, the IC50 was less than 20 µM.

As to `Cc1cncc(NC(=O)N2CC(C)(C)Oc3ccc(-c4cccc(N(C)C)c4)nc32)c1` [Compound 593], on SIRT1, the Emax was more than 200% and the EC1.5 entry is listed as “A (EC1.5<1.0 μM)”. In the experiment on TNF, this compound gave an IC50 not below 20 µM.

With `O=C(Nc1ccnc(N2CCC2)c1)N1CCCOc2ccc(-c3cccc(N4CCCC4)c3)nc21` [Compound 611], on SIRT1, the Emax is more than 200% and the EC1.5 result is recorded as “A (EC1.5<1.0 μM)”. The IC50 with TNF is less than 20 µM.

With `Cc1cc(-c2cccc(C(F)(F)F)c2)nc2c1OCCN2C(=O)Nc1ccnc(N2CCC2)c1` [Compound 683], at SIRT1, the Emax was more than 200% and the EC1.5 result was “A (EC1.5<1.0 μM)”. The IC50 with TNF is not below 20 µM.

Consider `Cc1csc(NC(=O)N2CC(C)(C)Oc3ccc(-c4cccc(N5CCOCC5)c4)nc32)n1` [Compound 675], for which, at SIRT1, the Emax is more than 200% and the EC1.5 result is “A (EC1.5<1.0 μM)”. This compound also showed a half-maximal inhibitory concentration (IC50) with TNF of less than 20 µM.

As to `O=C(Nc1ccnc(N2CCCC2)c1)N1CCCOc2ccc(-c3cccc(N4CCCC4)c3)nc21` [Compound 612], at SIRT1, the Emax was more than 200% and the EC1.5 result is listed as “A (EC1.5<1.0 μM)”. Also, the IC50 with TNF is less than 20 µM.

With `Cc1cc(NC(=O)N2CCOc3c(C)cc(-c4cccc(C(F)(F)F)c4)nc32)cc(C)n1` [Compound 671], on SIRT1, the Emax is more than 200% and the EC1.5 entry is reported as “A (EC1.5<1.0 μM)”. The IC50 with TNF was less than 20 µM.

On to `Cc1cc(C)nc(NC(=O)N2CCOc3ccc(-c4cccc(C(F)(F)F)c4)nc32)c1` [Compound 511], for which, on SIRT1, the Emax is more than 200% and the EC1.5 result is recorded as “A (EC1.5<1.0 μM)”. The half-inhibitory concentration (IC50) in the experiment with TNF was not below 20 µM.

Turning to `Cc1cc(-c2cccc(C(F)(F)F)c2)nc2c1OCCN2C(=O)Nc1ccncc1` [Compound 662], at SIRT1, the Emax was more than 200% and the EC1.5 entry is “A (EC1.5<1.0 μM)”. This compound registered a half-inhibitory concentration (IC50) in the experiment with TNF of less than 20 µM.

For `Cc1cc(C)nc(NC(=O)N2CCCc3ccc(-c4cccc(C(F)(F)F)c4)nc32)c1` [Compound 647], on SIRT1, the Emax is more than 200% and the EC1.5 result is reported as “A (EC1.5<1.0 μM)”. Further, the IC50 with TNF is not below 20 µM.

`Cc1cc(NC(=O)N2CC(C)(C)Oc3ccc(-c4cccc(Cl)c4)nc32)cc(C)n1` [Compound 602]: on SIRT1, the Emax was more than 200% and the EC1.5 entry was “A (EC1.5<1.0 μM)”. Moreover, the IC50 in the experiment with TNF is not below 20 µM.

Turning to `Cc1cc(-c2cccc(C(F)(F)F)c2)nc2c1OCCN2C(=O)Nc1ccncn1` [Compound 669], on SIRT1, the Emax was more than 200% and the EC1.5 entry is “A (EC1.5<1.0 μM)”. This compound showed an IC50 in the experiment with TNF not below 20 µM.

As for `Cc1cc(-c2cccc(C(F)(F)F)c2)nc2c1OCCN2C(=O)Nc1ccncc1F` [Compound 663], at SIRT1, the Emax is more than 200% and the EC1.5 entry was “A (EC1.5<1.0 μM)”. This compound also had an IC50 with TNF not below 20 µM.

On to `CN1CCN(C(=O)Nc2cccnn2)c2nc(-c3cccc(C(F)(F)F)c3)ccc21` [Compound 537], for which, on SIRT1, the Emax was more than 200% and the EC1.5 result was “A (EC1.5<1.0 μM)”. The IC50 with TNF is not below 20 µM.

For `Cc1cc(NC(=O)N2CCCOc3ccc(-c4cccc(N5CCCC5)c4)nc32)ccn1` [Compound 614], on SIRT1, the Emax was more than 200% and the EC1.5 result is “A (EC1.5<1.0 μM)”. Besides, the IC50 in the experiment on TNF was not below 20 µM.

For `O=C(Nc1cccc(N2CCOCC2)n1)N1CCOc2ccc(-c3cccc(C(F)(F)F)c3)nc21` [Compound 506, N-(6-morpholinopyridin-2-yl)-6-(3-(trifluoromethyl)phenyl)-2H-pyrido[3,2-b][1,4]oxazine-4(3H)-carboxamide], at SIRT1, the Emax was more than 200% and the EC1.5 entry is “A (EC1.5<1.0 μM)”. The compound further came in with an IC50 in the experiment on TNF not below 20 µM.

Consider `CC1(C)CN(C(=O)Nc2cncc(F)c2)c2nc(-c3cccc(N4CCCC4)c3)ccc2O1` [Compound 604], for which, on SIRT1, the Emax is more than 200% and the EC1.5 entry was “A (EC1.5<1.0 μM)”. In the experiment on TNF, this compound yielded an IC50 not below 20 µM.

Consider `Cc1cncc(NC(=O)N2CCCOc3ccc(-c4cccc(Cl)c4)nc32)c1` [Compound 598], for which, at SIRT1, the Emax was more than 200% and the EC1.5 entry is “A (EC1.5<1.0 μM)”. Also, the 50% inhibitory concentration (IC50) with TNF was less than 20 µM.

For `Cc1cc(C)nc(NC(=O)N2CCOc3c(C)cc(-c4cccc(Cl)c4)nc32)c1` [Compound 690], on SIRT1, the Emax is more than 200% and the EC1.5 entry was “A (EC1.5<1.0 μM)”. This compound also had a half-maximal inhibitory concentration (IC50) in the experiment with TNF not below 20 µM.

`Cc1cc(NC(=O)N2CCCc3ccc(-c4cccc(F)c4)nc32)cc(C)n1` [Compound 595]: at SIRT1, the Emax is more than 200% and the EC1.5 entry is on record as “A (EC1.5<1.0 μM)”. In the experiment with TNF, this compound came in with an IC50 of less than 20 µM.
